Four molecules from patent US20230072164A1, “GRANULAR PHARMACEUTICAL PRODUCT FOR ORAL ADMINISTRATION FROM A PRE-FILLED STRAW AND METHOD OF MANUFACTURING SUCH PHARMACEUTICAL PRODUCT” (ALTERNO LABS D.O.O., priority 2020, published 2023) can be followed below.

Holding throughout (format): physicochemical
A short description of data set [1]: Sessile drop water contact angle on compressed plates. Set-up: key to Observed sweling: — = not measurable; * = observed; ** = fast swelling; *** = very fast swelling. As to conditions: for Δ θ: decrease of water contact angle from 0 s to 30 s; for Observed sweling: during contact angle measurement; for θ at time 0 s (st. deviation) / θ at time 30 s (st. deviation): sessile drop water contact angle, 3 μL drop, flat surface plate, room temperature. Here is the method: The water contact angle on compressed powders of the different polymers used as the first coating layer, trehalose and erythritol was measured with a Kruss sessile drop contact angle meter DSA100 (Krυss, Germany) at room temperature. 200 mg of powder was compressed with a Specac hydraulic press (Kent, England) with a 10 s dwell time at a pressure of 4×10^8 Pa. A circular punch and dye assembly (12 mm diameter) with polished stainless steel round punches were used for compression. At least six repetitions on three different plates of the same polymer or other two excipients were performed to ensure the reproducibility of results. Measurements were performed with 3 μL water drop and video recording (software DSA 1.90.0.14 Krυss, Germany) that enabled the determination of contact angles at time zero and 30 seconds later. Contact angles at these two-time points together with visual observation of surface swelling were taken as relevant parameters for polymers differentiation. In the same manner, trehalose and erythritol were also analyzed.

Data set [2] is described as follows: Particle size distribution by laser diffraction (dry powder). Here is the method: The particle size distribution of powder samples (crystals, coated crystals) was determined using a laser diffraction analyzer (Malvern Mastersizer 3000, Worcestershire, United Kingdom) connected to Aero S dry powder dispersion, as this technique enables measurement in the range between 100 nm and 3500 μm. Approximately 2-3 g of sample was put into the dosing device, air pressure was set to 1.2 bar for coated crystals and granulates (for micronized paracetamol the dispersing air pressure was set to 3.0 bar). Measurement was performed automatically when obscuration was in a range between 0.5 and 5%. Background measurements were performed for 10 seconds and the stabilization time delay before initialization (time before measurements after the desired obscuration was achieved) was set to 3 seconds and measurement duration to 5 seconds respectively. The nonspherical measurement mode approximation was used to determine the particle size distribution for paracetamol crystals and coated crystals. A refraction index and absorption rate for paracetamol were set to 1.62 and 0.01 respectively. The distribution results were expressed as three values: d10, where 10% of the particle population lies below the measured value; d50, the median value; and d90, where 90 percent of the population lies below the measured value.

Data set [3] is described as follows: Dissolution of coated paracetamol crystals in water (taste masking, non-compendial). As to conditions: 100 mL purified water, room temperature. As to the method:
A non-compendial test was performed in order to simulate the taste masking efficinecy of polymer coat during drug sipping. Pure paracetamol crystals were used as reference material. 100 mL of purified water was transferred in an Erlenmeyer flask on a magnetic stirrer at room temperature. The test formulation containing 250 mg of paracetamol was suspended in the Erlenmeyer flask and aliquotes of 5.0 mL were withdrawn at intervals of 0.5, 1.0, 1.5, 2.0, 2.5, 3.0 and 5.0 minutes (±15% tolerance limit for time) and replaced with an equal volume of purified water (freshwater, maintained at the same temperature) at each sampling point. Samples were immediately filtered using 0.45 μm RC syringe filters.
Samples were appropriately diluted and analyzed by HPLC. The amount of drug release was calculated from a standard calibration curve, which was prepared on the day of the experiment.

Where [4] appears, read: Example 3, coated crystals 250-500 μm, milled erythritol, final granules from high shear mixer.
The mark [5] stands for this setting: laser diffraction, Comparative Example 1 and Example 2.

Take `OC[C@@H](O)[C@@H](O)CO` [Erythritol, erythritol]: in data set [1], the “Δ θ” value is 0 °, the Observed sweling entry was “—”, the “θ at time 0 s (st. deviation)” value is reported as 0 ° and the “θ at time 30 s (st. deviation)” value was 0 °. Besides, in data set [2] (setting [4]), the d10 came to 7 μm, the d50 stood at 46 μm and the d90 is on record as 108 μm.

For `CC(=O)Nc1ccc(O)cc1` [Paracetamol—large crystals, uncoated, paracetamol], the “dissolution rate in water” value in data set [3] was “dissoves much faster than from coated particles”. For the same molecule, in data set [2] (setting [5]), the d10 stood at 208 μm, the d50 worked out at 458 μm and the d90 is reported as 772 μm.

`CC(=O)Nc1ccc(O)cc1` [Paracetamol—milled, uncoated, paracetamol]: in data set [2] (setting [5]), the d10 stood at 5 μm, the d50 was found to be 32 μm and the d90 was 152 μm.

`OC[C@H]1O[C@H](O[C@H]2O[C@H](CO)[C@@H](O)[C@H](O)[C@H]2O)[C@H](O)[C@@H](O)[C@@H]1O` [Trehalose, trehalose]: in data set [1], the “Δ θ” value is on record as 4.8 °, the Observed sweling result is reported as “—”, the “θ at time 0 s (st. deviation)” value is 13.4 (1.9) ° and the “θ at time 30 s (st. deviation)” value is 8.6 (2.0) °.
